The source made the active and inactive calls. The calls are words filed in the database; no cut-off is given here.
Key:
[1] = Inhibition of recombinant rat FAAH deltaTM mutant expressed in Escherichia coli using 14C-labeled oleamide as substrate preincubated for 3 hrs followed by substrate addition and measured by TLC based Dixon-plot analysis; settings: read-out: Ki(app)
[2] = target: T1, Fatty-acid amide hydrolase 1 (Mus musculus, UniProt O08914); assay: Inhibition of FP-rhodamine probe binding to FAAH in mouse brain membrane proteome preincubated for 1 hr followed by FP-rhodamine addition and measured after 30 mins by SDS-PAGE based fluorescence assay; assay type: cell membranes
T1 sequence (O08914 whole entry): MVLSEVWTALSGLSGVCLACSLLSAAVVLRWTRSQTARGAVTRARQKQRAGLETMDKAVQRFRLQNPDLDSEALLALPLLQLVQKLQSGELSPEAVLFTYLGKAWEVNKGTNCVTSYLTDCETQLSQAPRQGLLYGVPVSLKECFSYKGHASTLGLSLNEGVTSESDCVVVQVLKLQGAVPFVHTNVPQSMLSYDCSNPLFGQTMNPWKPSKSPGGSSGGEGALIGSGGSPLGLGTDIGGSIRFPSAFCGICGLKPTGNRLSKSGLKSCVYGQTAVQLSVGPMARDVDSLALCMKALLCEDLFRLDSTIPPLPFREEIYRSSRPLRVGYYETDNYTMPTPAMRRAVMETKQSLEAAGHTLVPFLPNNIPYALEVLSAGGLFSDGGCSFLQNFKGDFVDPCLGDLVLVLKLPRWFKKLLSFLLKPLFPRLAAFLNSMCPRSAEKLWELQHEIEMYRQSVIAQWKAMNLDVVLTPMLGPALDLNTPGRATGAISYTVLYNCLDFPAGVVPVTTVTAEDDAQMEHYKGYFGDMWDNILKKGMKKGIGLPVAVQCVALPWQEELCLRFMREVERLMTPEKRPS

Monoglyceride lipase = target: T2, Monoglyceride lipase (Mus musculus, UniProt O35678); assay: Inhibition of FP-rhodamine probe binding to MGLL in mouse brain membrane proteome preincubated for 1 hr followed by FP-rhodamine addition and measured after 30 mins by SDS-PAGE based fluorescence assay; assay type: cell membranes
T2 sequence (O35678 whole entry): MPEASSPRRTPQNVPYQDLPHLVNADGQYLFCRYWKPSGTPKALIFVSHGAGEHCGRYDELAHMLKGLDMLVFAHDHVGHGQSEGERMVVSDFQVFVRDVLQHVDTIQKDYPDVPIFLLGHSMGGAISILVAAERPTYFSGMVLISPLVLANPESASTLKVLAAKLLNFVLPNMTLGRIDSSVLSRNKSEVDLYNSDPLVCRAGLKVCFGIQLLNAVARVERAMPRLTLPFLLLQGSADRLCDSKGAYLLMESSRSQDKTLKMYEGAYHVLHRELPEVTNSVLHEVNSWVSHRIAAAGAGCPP

[3] = target: T3, Monoacylglycerol lipase ABHD6 (Mus musculus, UniProt Q8R2Y0); assay: Inhibition of FP-rhodamine probe binding to ABHD6 in mouse brain membrane proteome preincubated for 1 hr followed by FP-rhodamine addition and measured after 30 mins by SDS-PAGE based fluorescence assay; assay type: cell membranes
T3 sequence (Q8R2Y0 whole entry): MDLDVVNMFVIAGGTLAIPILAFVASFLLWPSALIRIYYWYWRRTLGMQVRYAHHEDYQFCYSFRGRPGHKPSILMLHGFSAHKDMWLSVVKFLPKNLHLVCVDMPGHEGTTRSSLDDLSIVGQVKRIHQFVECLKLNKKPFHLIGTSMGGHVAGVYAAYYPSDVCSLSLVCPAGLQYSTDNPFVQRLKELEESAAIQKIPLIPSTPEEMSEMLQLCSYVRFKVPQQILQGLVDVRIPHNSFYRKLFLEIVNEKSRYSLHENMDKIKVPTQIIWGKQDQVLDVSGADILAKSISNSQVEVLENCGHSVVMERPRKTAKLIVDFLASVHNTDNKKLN

[4] = target: T4, Neutral cholesterol ester hydrolase 1 (Mus musculus, UniProt Q8BLF1); assay: Inhibition of FP-rhodamine probe binding to KIAA1363 in mouse brain membrane proteome preincubated for 1 hr followed by FP-rhodamine addition and measured after 30 mins by SDS-PAGE based fluorescence assay; assay type: cell membranes
T4 sequence (Q8BLF1 whole entry): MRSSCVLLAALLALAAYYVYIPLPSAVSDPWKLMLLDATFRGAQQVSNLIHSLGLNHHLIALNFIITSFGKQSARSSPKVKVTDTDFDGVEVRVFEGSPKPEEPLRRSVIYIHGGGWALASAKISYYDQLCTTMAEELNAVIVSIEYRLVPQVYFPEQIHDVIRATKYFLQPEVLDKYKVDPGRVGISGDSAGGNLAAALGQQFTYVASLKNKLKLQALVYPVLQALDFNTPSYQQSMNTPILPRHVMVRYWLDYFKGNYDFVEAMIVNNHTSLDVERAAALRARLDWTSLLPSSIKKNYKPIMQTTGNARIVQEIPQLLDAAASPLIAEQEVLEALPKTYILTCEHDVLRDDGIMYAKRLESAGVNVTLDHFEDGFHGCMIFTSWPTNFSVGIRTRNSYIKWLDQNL

Mus musculus = organism: Mus musculus; assay: Selectivity ratio of IC50 for inhibition of FP-rhodamine probe binding to ABHD6 in mouse brain membrane proteome to IC50 for inhibition of FP-rhodamine probe binding to MGLL in mouse brain membrane proteome; assay type: cell membranes
Rattus norvegicus [5] = organism: Rattus norvegicus; assay: Inhibition of recombinant rat FAAH deltaTM mutant expressed in Escherichia coli at 50 nM using 14C-labeled oleamide as substrate preincubated for 3 hrs by TLC method relative to control
Rattus norvegicus [6] = organism: Rattus norvegicus; assay: Irreversible inhibition of recombinant rat FAAH deltaTM mutant expressed in Escherichia coli at 50 nM using 14C-labeled oleamide as substrate preincubated for 3 hrs followed by dialysis for 18 hrs
Rattus norvegicus [7] = organism: Rattus norvegicus; assay: Time-dependent irreversible inhibition of recombinant rat FAAH deltaTM mutant expressed in Escherichia coli using 14C-labeled oleamide as substrate by TLC method
Rattus norvegicus [8] = organism: Rattus norvegicus; assay: Inhibition of recombinant rat FAAH deltaTM mutant expressed in Escherichia coli at 10 nM using 14C-labeled oleamide as substrate preincubated for 3 hrs by TLC method relative to control
Rattus norvegicus [9] = organism: Rattus norvegicus; assay: Irreversible inhibition of recombinant rat FAAH deltaTM mutant expressed in Escherichia coli at 10 nM using 14C-labeled oleamide as substrate preincubated for 3 hrs followed by dialysis for 18 hrs
Rattus norvegicus [10] = organism: Rattus norvegicus; assay: Inhibition of recombinant rat FAAH deltaTM mutant expressed in Escherichia coli at 100 nM using 14C-labeled oleamide as substrate preincubated for 3 hrs by TLC method relative to control
Rattus norvegicus [11] = organism: Rattus norvegicus; assay: Irreversible inhibition of recombinant rat FAAH deltaTM mutant expressed in Escherichia coli at 100 nM using 14C-labeled oleamide as substrate preincubated for 3 hrs followed by dialysis for 18 hrs

N#Cc1cnn(C(=O)N2CCN(C(c3ccc(OCc4ccccc4)cc3)c3ccc(OCc4ccccc4)cc3)CC2)c1
Ki [1]: 25000 nM | IC50 [2]: 790000 nM | IC50 (Monoglyceride lipase): 20 nM | IC50 [3]: 130000 nM | IC50 [4]: > 100000 nM | Ratio IC50 (Mus musculus): > 1000

O=C(N1CCN(Cc2ccc3ccccc3c2)CC1)n1cccn1
Ki [1]: 9.8 nM | IC50 [2]: 90 nM | IC50 (Monoglyceride lipase): 960 nM | IC50 [3]: 10 nM | IC50 [4]: > 100000 nM | inhibition (Rattus norvegicus [5]): > 70% | inhibition (Rattus norvegicus [6]): Active

O=C(N1CCN(Cc2ccc(OCc3ccccc3)cc2)CC1)n1cccn1
Ki [1]: 10 nM | IC50 [2]: 60 nM | IC50 (Monoglyceride lipase): 450 nM | IC50 [3]: 220 nM | IC50 [4]: > 100000 nM | TDI (Rattus norvegicus [7]): Active | inhibition (Rattus norvegicus [5]): > 70% | inhibition (Rattus norvegicus [6]): Active

N#Cc1cnn(C(=O)N2CCN(Cc3ccc4ccccc4c3)CC2)c1
Ki [1]: 0.16 nM | IC50 [2]: < 10 nM | IC50 (Monoglyceride lipase): 55 nM | IC50 [3]: < 10 nM | IC50 [4]: > 100000 nM | inhibition (Rattus norvegicus [8]): > 70% | inhibition (Rattus norvegicus [9]): Active

Cc1cnn(C(=O)N2CCN(Cc3ccc(OCc4ccccc4)cc3)CC2)c1
Ki [1]: 100 nM | IC50 [2]: 650 nM | IC50 (Monoglyceride lipase): 200 nM | IC50 [3]: 10 nM | IC50 [4]: > 100000 nM | TDI (Rattus norvegicus [7]): Active | inhibition (Rattus norvegicus [10]): > 70% | inhibition (Rattus norvegicus [11]): Active

N#Cc1cnn(C(=O)N2CCCCC2)c1
Ki [1]: 80 nM | IC50 [2]: < 10 nM | IC50 (Monoglyceride lipase): 120 nM | IC50 [3]: 60 nM | IC50 [4]: > 100000 nM

N#Cc1cnn(C(=O)N2CCN(Cc3ccc(OCc4ccccc4)cc3)CC2)c1
Ki [1]: 0.16 nM | IC50 [2]: < 10 nM | IC50 (Monoglyceride lipase): < 10 nM | IC50 [3]: < 10 nM | IC50 [4]: > 100000 nM | TDI (Rattus norvegicus [7]): Active | inhibition (Rattus norvegicus [8]): > 70% | inhibition (Rattus norvegicus [9]): Active

Cc1cnn(C(=O)N2CCN(C(c3ccc(OCc4ccccc4)cc3)c3ccc(OCc4ccccc4)cc3)CC2)c1
Ki [1]: 110000 nM | IC50 [2]: > 100000 nM | IC50 (Monoglyceride lipase): 2100 nM | IC50 [3]: > 100000 nM | IC50 [4]: > 100000 nM

Cc1cnn(C(=O)N2CCN(Cc3ccc4ccccc4c3)CC2)c1
Ki [1]: 130 nM | IC50 [2]: 960 nM | IC50 (Monoglyceride lipase): 920 nM | IC50 [3]: 10 nM | IC50 [4]: > 100000 nM | inhibition (Rattus norvegicus [10]): > 70% | inhibition (Rattus norvegicus [11]): Active

N#Cc1cnn(C(=O)N2CCN(C(c3ccc4ccccc4c3)c3ccc4ccccc4c3)CC2)c1
IC50 [2]: > 100000 nM | IC50 (Monoglyceride lipase): 8 nM | IC50 [3]: 560 nM | IC50 [4]: > 100000 nM | Ratio IC50 (Mus musculus): 70

Cc1cnn(C(=O)N2CCCN(Cc3ccc(OCc4ccccc4)cc3)CC2)c1
Ki [1]: 230 nM | IC50 [2]: 560 nM | IC50 (Monoglyceride lipase): 9500 nM | IC50 [3]: 9500 nM | IC50 [4]: > 100000 nM

Source: ChEMBL document CHEMBL4316626, “N-Acyl pyrazoles: Effective and tunable inhibitors of serine hydrolases” (Bioorg Med Chem, 2019)
